Measured values taken from patent publication US12342818B2, “Formulations and methods for controlling invasive amphibians” (priority 2019, dated 2025).

Test system: Adult cane toads (Rhinella marina)
Test: Cane toad spray trial (formulation sprayed on ventral and/or dorsal surface)
Assay type: in vivo
Settings: for Mortality Rate / Avg. Time Until Breathing & Heart Beat Not Detected / Avg. Time to Unresponsive: 48 hrs trial
Protocol: Adult cane toads (Rhinella marina) (>[…] SUL=snout-urostyle length) were collected around Townsville one or two nights prior to the trials. The toads were kept in two Nally bins with all males in one, and all females in the other for ease of sorting. […]
• 1. The compound and carrier controls were prepared on day of testing. • 2. Toads were weighed, measured and placed in individual buckets and left for 10 minutes to settle. • 3. 1.5 ml of the formulation or carrier or water was delivered to the ventral and/or dorsal surface of each toad via a spray bottle (2×1 ml sprays and accounting for approximately 0.5 ml loss during spraying). • 4. Measurements of toad behaviour and heart rate were recorded at T=5, 10, 15, 20, 25, 30, 45, 60, 75, 90, 105, 120 minutes, plus 4-6 hours, 10-12 hours, 16-18 hours and 24 hours after spraying. If toads were still unconscious but not dead (if there was a heartbeat) within 24 hours, they were checked again at 48 hours. The following measurements were taken at each time interval: • Consciousness: Righting reflex was tested by flipping toads onto their backs and their ability to right themselves was recorded as “fast,” “slow,” or “unresponsive”. Observations were made of the palpebral reflex and involuntary muscular movement: Palpebral reflex was tested by gently tapping the palpebral area with the finger and observing eyelid movement. Involuntary muscular movement was tested via the withdrawal reflex, by grasping each limb distally and extending it. • Breathing/heart rate (did the toad appear to be breathing or was there a detectable heart beat); • Side effects (any other noticeable effects of the formulation such as twitching, distress or agitation, poison gland discharge, muscle rigidness, gasping, or ventral redness).
Even when no vital signs are detected externally during the experimental process, previous studies have shown that toads may appear dead and still have a heartbeat. At the completion of the trials, all animals were anaesthetised with a lethal dose MS222 (tricaine mesylate) then dissected to determine if the heart was still beating and to look for any signs of internal necrosis.

[1] = carrier ethanol, 84.2 g/L, 2 sprays ventral + dorsal, 6 toads
[2] = carrier ethanol, 168.36 g/L, 2 sprays ventral + dorsal, 6 toads
[3] = carrier isopropanol, 84.2 g/L, 2 sprays ventral + dorsal, 6 toads
[4] = carrier isopropanol, 126.3 g/L, 2 sprays dorsal, 6 toads
[5] = carrier isopropanol, 126.3 g/L, 2 sprays dorsal, 24 toads (repeat trial)
[6] = carrier isopropanol, 140 g/L, 2 sprays dorsal, 22 toads
[7] = carrier isopropanol, 168.36 g/L, 2 sprays ventral + dorsal, 6 toads

OCCOc1ccccc1 [2-Phenoxyethanol]
Mortality Rate (carrier ethanol, 21.05 g/L, 2 sprays ventral + dorsal, 6 toads): 0% | Avg. Time Until Breathing & Heart Beat Not Detected [1]: 405 min | Avg. Time to Unresponsive [1]: 15 min | Mortality Rate [1]: 100% | Avg. Time Until Breathing & Heart Beat Not Detected [2]: 20 min | Avg. Time to Unresponsive [2]: 13.33 min | Mortality Rate [2]: 100% | Avg. Time Until Breathing & Heart Beat Not Detected [3]: 40.83 min | Avg. Time to Unresponsive [3]: 16.67 min | Mortality Rate [3]: 100% | Avg. Time Until Breathing & Heart Beat Not Detected [4]: 23 min | Avg. Time to Unresponsive [4]: 18.3 min | Mortality Rate [4]: 100% | Avg. Time Until Breathing & Heart Beat Not Detected [5]: 24.25 min | Avg. Time to Unresponsive [5]: 18 min | Mortality Rate [5]: 95.8% | Avg. Time Until Breathing & Heart Beat Not Detected [6]: 22.05 min | Avg. Time to Unresponsive [6]: 17.95 min | Mortality Rate [6]: 100% | Avg. Time Until Breathing & Heart Beat Not Detected [7]: 14.17 min | Avg. Time to Unresponsive [7]: 11.67 min | Mortality Rate [7]: 100% | Avg. Time to Unresponsive (carrier propylene glycol, 168.36 g/L, 2 sprays ventral + dorsal, 6 toads): 15.83 min | Avg. Time to Unresponsive (carrier water, 168.36 g/L, 2 sprays ventral + dorsal, 6 toads): 14.166 min | effectiveness among potential toxicants tested (in different carriers) (compared with benzocaine, sodium nitrite, tricaine mesylate, sodium monesnsin): only real effective candidate | effectiveness as toad control (concentration greater than 40 g/L in a carrier of either ethanol or isopropanol): effective control | effectiveness as toad control (formulations with water as a carrier): not effective
